Assay results taken from patent US20260256742A1, “ANDROGEN RECEPTOR ANTAGONISTS FOR THE TREATMENT OF PATIENTS WITH BIOCHEMICAL RECURRENCE OF HORMONE SENSITIVE PROSTATE CANCER” (BAYER CONSUMER CARE AG, priority 2023, published 2026).
“Also recorded” adds a separate entry of the source. Read-outs that look alike come from different tables or passages of the source.

Assays:
P-gp = P-gp (Homo sapiens, UniProt P08183); conditions: in vitro; cited from earlier work
[1] = rat, in vivo
[2] = target: T1, breast cancer resistance protein (BCRP) (Homo sapiens, UniProt Q9UNQ0); conditions: cited from earlier work
T1 sequence (Q9UNQ0 1-655): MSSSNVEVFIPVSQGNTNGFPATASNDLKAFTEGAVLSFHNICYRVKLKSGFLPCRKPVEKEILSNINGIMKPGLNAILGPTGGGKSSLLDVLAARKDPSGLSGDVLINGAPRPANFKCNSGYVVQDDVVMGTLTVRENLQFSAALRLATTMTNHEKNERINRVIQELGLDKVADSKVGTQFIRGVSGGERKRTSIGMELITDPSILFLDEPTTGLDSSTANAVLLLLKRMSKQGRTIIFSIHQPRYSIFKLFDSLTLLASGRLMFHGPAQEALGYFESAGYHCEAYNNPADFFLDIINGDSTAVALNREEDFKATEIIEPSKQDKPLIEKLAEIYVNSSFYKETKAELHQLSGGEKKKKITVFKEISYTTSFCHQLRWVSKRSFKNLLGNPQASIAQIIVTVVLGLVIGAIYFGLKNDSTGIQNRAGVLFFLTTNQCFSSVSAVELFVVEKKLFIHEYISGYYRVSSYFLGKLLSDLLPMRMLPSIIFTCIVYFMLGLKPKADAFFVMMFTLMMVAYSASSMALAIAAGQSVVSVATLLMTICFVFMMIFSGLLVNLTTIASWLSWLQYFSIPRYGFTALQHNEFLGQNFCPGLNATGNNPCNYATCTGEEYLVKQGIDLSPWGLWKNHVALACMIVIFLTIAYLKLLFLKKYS

P-glycoprotein (P-gp) = P-glycoprotein (P-gp) (Homo sapiens, UniProt P08183); conditions: cited from earlier work
P-glycoprotein (P-gp), sequence (P08183 whole entry): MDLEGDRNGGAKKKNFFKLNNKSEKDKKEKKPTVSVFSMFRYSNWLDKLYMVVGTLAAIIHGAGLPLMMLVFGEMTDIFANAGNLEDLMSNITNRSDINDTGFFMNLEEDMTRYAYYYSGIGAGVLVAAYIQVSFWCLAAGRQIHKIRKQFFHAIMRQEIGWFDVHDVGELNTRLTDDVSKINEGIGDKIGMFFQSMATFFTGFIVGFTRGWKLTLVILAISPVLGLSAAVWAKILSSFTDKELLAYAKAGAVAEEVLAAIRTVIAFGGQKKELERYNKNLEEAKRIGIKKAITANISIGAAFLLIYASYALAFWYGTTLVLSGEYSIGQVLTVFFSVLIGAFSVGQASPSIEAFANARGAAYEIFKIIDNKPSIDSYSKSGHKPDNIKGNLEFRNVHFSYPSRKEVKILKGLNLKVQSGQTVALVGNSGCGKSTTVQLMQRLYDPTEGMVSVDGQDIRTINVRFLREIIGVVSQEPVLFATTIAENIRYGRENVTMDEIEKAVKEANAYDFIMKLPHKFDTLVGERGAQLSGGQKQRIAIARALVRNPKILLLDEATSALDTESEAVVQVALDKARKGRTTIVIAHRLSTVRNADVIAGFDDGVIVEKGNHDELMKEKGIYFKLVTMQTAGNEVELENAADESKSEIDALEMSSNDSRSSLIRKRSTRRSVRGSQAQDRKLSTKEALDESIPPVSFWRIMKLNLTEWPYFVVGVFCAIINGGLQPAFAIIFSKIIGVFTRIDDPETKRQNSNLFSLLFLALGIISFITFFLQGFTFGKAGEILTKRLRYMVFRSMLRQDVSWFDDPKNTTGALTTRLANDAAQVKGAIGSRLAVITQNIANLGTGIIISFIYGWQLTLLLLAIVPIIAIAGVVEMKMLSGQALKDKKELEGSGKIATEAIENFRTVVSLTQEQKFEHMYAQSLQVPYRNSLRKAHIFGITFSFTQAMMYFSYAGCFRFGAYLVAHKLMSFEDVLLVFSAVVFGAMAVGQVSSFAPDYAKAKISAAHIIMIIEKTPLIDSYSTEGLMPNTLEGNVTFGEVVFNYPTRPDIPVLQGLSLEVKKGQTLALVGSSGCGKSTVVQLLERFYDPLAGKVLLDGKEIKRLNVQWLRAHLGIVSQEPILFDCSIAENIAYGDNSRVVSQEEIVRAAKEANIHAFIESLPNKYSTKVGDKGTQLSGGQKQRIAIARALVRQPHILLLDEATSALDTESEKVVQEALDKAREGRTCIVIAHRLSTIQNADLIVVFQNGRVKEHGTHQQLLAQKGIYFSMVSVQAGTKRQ

CYP1A2 = conditions: in vitro; cited from earlier work
[3] = transgenic mouse carcinogenicity study; assay type: in vivo, 001178-T (hemizygous) RasH 2 mice; conditions: male and female RasH 2 mice, up to 500 mg/kg/dose BID, at least 26 weeks
[4] = tested on: prostate cancer cells rendered castration resistant via overexpression of AR; conditions: cited from earlier work
[5] = rats; cited from earlier work
[6] = dog, in vivo
[7] = cited from earlier work
BCRP = target: T2, BCRP (Homo sapiens, UniProt Q9UNQ0); conditions: in vitro; cited from earlier work
T2 sequence (Q9UNQ0 1-655): T1 sequence (Q9UNQ0 1-655)

nine CYP isoforms = experiment: in vitro CYP inhibition; assay type: in vitro ADME; conditions: rank order and mechanistic static assessment
Cytochrome P450 (CYP)3A4 = Cytochrome P450 (CYP)3A4 (Homo sapiens, UniProt P08684); conditions: in vitro; cited from earlier work
Cytochrome P450 (CYP)3A4, sequence (P08684 whole entry): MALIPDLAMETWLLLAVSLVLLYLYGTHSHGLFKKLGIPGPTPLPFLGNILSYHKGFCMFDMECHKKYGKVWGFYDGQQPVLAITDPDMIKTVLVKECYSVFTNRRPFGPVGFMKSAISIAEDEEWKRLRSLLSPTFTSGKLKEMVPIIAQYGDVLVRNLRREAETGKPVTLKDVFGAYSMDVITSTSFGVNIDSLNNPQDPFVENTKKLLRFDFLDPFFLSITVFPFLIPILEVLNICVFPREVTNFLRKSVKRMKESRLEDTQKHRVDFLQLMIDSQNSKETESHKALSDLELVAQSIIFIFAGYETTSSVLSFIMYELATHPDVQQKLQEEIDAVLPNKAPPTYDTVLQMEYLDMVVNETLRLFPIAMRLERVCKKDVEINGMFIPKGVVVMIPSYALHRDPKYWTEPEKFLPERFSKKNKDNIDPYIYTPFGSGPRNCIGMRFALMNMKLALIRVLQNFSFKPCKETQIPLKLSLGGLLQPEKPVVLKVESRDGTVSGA

[8] = in vitro and in vivo; cited from earlier work
[9] = tested on: human prostate cancer xenograft models; conditions: cited from earlier work
MATE2-K = MATE2-K (Homo sapiens, UniProt Q86VL8); conditions: in vitro; cited from earlier work
MATE2-K, sequence (Q86VL8 1-566 isoform Q86VL8-3): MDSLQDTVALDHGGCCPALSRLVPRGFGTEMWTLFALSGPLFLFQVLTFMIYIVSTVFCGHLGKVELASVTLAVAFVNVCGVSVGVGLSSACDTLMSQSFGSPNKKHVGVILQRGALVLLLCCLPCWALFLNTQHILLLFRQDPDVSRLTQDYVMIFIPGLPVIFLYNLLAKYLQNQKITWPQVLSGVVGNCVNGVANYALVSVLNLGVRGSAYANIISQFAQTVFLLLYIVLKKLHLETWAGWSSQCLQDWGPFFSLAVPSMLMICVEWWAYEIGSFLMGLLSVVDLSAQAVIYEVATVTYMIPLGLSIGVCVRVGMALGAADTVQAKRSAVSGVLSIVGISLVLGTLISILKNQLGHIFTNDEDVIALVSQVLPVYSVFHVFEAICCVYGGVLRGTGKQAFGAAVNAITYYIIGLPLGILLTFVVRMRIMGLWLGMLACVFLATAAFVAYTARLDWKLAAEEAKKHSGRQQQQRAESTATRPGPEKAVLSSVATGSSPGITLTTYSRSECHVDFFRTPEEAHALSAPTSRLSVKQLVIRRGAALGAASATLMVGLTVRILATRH

[10] = target: T3, organic anion transporter (OAT)3 (Homo sapiens, UniProt Q8TCC7); conditions: in vitro; cited from earlier work
T3 sequence (Q8TCC7 1-542): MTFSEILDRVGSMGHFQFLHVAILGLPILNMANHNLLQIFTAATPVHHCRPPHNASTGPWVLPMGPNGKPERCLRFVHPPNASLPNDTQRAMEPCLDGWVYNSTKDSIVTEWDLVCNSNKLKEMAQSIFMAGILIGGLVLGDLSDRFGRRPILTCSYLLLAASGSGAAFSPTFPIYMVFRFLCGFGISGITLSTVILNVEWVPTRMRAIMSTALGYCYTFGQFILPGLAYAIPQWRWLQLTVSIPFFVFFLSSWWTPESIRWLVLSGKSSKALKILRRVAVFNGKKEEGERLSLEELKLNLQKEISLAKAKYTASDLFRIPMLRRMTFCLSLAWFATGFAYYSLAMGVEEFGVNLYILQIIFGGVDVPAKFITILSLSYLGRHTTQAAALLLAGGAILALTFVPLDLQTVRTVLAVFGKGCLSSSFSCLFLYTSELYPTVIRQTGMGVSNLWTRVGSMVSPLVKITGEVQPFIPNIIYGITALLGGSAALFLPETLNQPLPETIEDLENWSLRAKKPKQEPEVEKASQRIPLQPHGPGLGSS

AR = conditions: cited from earlier work
nmCRPC = conditions: in combination with ADT, patients with nmCRPC; cited from earlier work

P-gp, sequence (P08183 whole entry): as the sequence (P08183 whole entry) above

CC(O)c1cc(C(=O)N[C@@H](C)Cn2ccc(-c3ccc(C#N)c(Cl)c3)n2)[nH]n1 (stereo partly shown) [Darolutamide]
inhibition of P-gp-mediated transport (P-gp): observed | additional changes to reproductive tissues [1]: minimal increase in vacuolation of the pituitary gland, atrophy and secretory reduction in seminal vesicles and mammary glands | deaths during the treatment period [1]: No deaths occurred | other adverse effects [1]: No other adverse effects were observed | reversibility of changes in the male reproductive organs [1]: reversed or partially resolved | substrate for BCRP [2]: substrate | substrate for P-gp (P-glycoprotein (P-gp)): substrate | induction of CYP1A2 activity (CYP1A2): no relevant induction | carcinogenic potential [3]: no carcinogenic potential | agonist activity with AR overexpression [4]: lacks the partial agonist activity | absorption [5]: complete and rapid absorption | bioavailability [5]: high bioavailability | additional changes to reproductive tissues [6]: testicular hypospermia, seminiferous tubule dilatation and degeneration | deaths during the treatment period [6]: No deaths occurred | other adverse effects [6]: No other adverse effects were observed | reversibility of changes in the male reproductive organs [6]: reversed or partially resolved | effect of co-administration on CYP3A4/P-gp substrates ([7]; Phase I): no effect or only minor effects | increase of rosuvastatin exposure with darolutamide ([7]; because of BCRP and probably also OATPB1/OATPB3 inhibition): 5.2 fold | increase of darolutamide exposure ([7]; co-administered itraconazole, Phase I): 1.75 fold | decrease of darolutamide exposure ([7]; with rifampicin, Phase I): 72% | inhibition of BCRP-mediated transport (BCRP): observed | risk of clinically relevant DDIs via CYP inhibition (nine CYP isoforms): very low | main metabolic pathway (Cytochrome P450 (CYP)3A4): mainly metabolized via oxidative biotransformation catalyzed by Cytochrome P450 (CYP)3A4 | interconversion of the diastereoisomers (S,R)- and (S,S)- via keto-darolutamide [8]: Rapid interconversion | tumor regression ([9]; non-castrate hormone-sensitive and bicalutamide-resistant human prostate cancer xenograft models): partial or complete tumor regression | prostate tumor progression ([9]; several cell line- and patient derived models): inhibits prostate tumor progression | inhibition of MATE2-K-mediated transport (MATE2-K): observed | inhibition of OAT3-mediated transport [10]: observed | binding affinity to the AR (AR): greater affinity than bicalutamide; also recorded: high affinity | metastatic free survival (MFS) (nmCRPC): significantly increased | overall survival (OS) (nmCRPC): significantly increased
